Source: PubChem BioAssay AID624076 (Broad Institute, 2012)
Calls of active or inactive are those of the source. No rule for the calls is given here.

Experiment: PubChem AID 624076
Conditions: Carna kinase panel, IMAP FP / mobility shift, at 10 µM, active compounds read high

inhibition (ABL(E255K)): -4.01% (inactive)
inhibition (ABL(T315I)): 0.608% (inactive)
inhibition (AKT2): 0.755% (inactive)
inhibition (AKT3): 0.416% (inactive)
inhibition (ALK(L1196M)): 2.33% (inactive)
inhibition (ALK(R1275Q)): 2.67% (inactive)
inhibition (ARG): -1.1% (inactive)
inhibition (AXL): 4.36% (inactive)
inhibition (AurB): 6.59% (inactive)
inhibition (AurC): 6.9% (inactive)
inhibition (BRAF, cascade assay): 10.8% (inactive)
inhibition (BRK): -0.572% (inactive)
inhibition (BRSK1): 4.37% (inactive)
inhibition (BTK): -2.3% (inactive)
inhibition (CDK9/CycT1): 20.5% (inactive)
inhibition (CHK2): 6.76% (inactive)
inhibition (CK1e): 0.145% (inactive)
inhibition (CK1g1): 0.48% (inactive)
inhibition (CK1g2): 2.84% (inactive)
inhibition (CK2a2/b): -4.08% (inactive)
inhibition (CK1d): -0.463% (inactive)
inhibition (CLK1): 15.1% (inactive)
inhibition (CLK2): 22.8% (inactive)
inhibition (CLK3): 5.11% (inactive)
inhibition (CRIK): 0.502% (inactive)
inhibition (CaMK2b): 2.08% (inactive)
inhibition (CaMK4): 2.19% (inactive)
inhibition (CaMK1d): 0.058% (inactive)
inhibition (DAPK1): 1.44% (inactive)
inhibition (DCAMKL2): 3.11% (inactive)
inhibition (DLK, cascade assay): -3.03% (inactive)
inhibition (DYRK1A): 13.9% (inactive)
inhibition (DYRK1B): 52.5%
inhibition (DYRK2): -4.58% (inactive)
inhibition (EGFR(L861Q)): -0.865% (inactive)
inhibition (EML4-ALK): 1.03% (inactive)
inhibition (EPHA3): -0.86% (inactive)
inhibition (EPHA5): -0.402% (inactive)
inhibition (EPHA8): -3.88% (inactive)
inhibition (EPHB1): 3.24% (inactive)
inhibition (EPHB4): 2.47% (inactive)
inhibition (FGFR1): 4.17% (inactive)
inhibition (FGFR3(K650E)): 2.8% (inactive)
inhibition (FGFR3(K650M)): 1.1e-14% (inactive)
inhibition (FGFR4(N535K)): 0.356% (inactive)
inhibition (FGFR4(V550L)): 4.09% (inactive)
inhibition (FGFR4): 5.54% (inactive)
inhibition (FLT4): 9% (inactive)
inhibition (FMS): -0.377% (inactive)
inhibition (GSK3a): 101%
inhibition (HER4): -0.972% (inactive)
inhibition (HIPK1): 8.84% (inactive)
inhibition (HIPK3): 3.54% (inactive)
inhibition (HIPK4): 7.81% (inactive)
inhibition (Haspin): -1.27% (inactive)
inhibition (IGF1R): -2.57% (inactive)
inhibition (IKKb): -2.12% (inactive)
inhibition (IRAK4): -2.34% (inactive)
inhibition (IRR): -1.56% (inactive)
inhibition (JAK2): -0.539% (inactive)
inhibition (JAK3): 8.04% (inactive)
inhibition (JNK1): -1.99% (inactive)
inhibition (JNK2): 3.84% (inactive)
inhibition (JNK3): 2.16% (inactive)
inhibition (KIT(T670I)): 8.36% (inactive)
inhibition (KIT(V560G)): 3.59% (inactive)
inhibition (KIT): 6.69% (inactive)
inhibition (LATS2): 3.09% (inactive)
inhibition (LOK): 8.66% (inactive)
inhibition (LTK): 11.1% (inactive)
inhibition (LYNa): 15.1% (inactive)
inhibition (MAP2K3, cascade assay): 6.17% (inactive)
inhibition (MAP2K4, cascade assay): 0.115% (inactive)
inhibition (MAP3K4, cascade assay): 7.41% (inactive)
inhibition (MAP3K5, cascade assay): 14.4% (inactive)
inhibition (MAP4K2): 7.36% (inactive)
inhibition (MARK2): 39.1% (inactive)
inhibition (MARK4): 48.6% (inactive)
inhibition (MELK): 7.87% (inactive)
inhibition (MER): 8.36% (inactive)
inhibition (MGC42105): 0.183% (inactive)
inhibition (MINK): -2.54% (inactive)
inhibition (MLK1, cascade assay): 17.6% (inactive)
inhibition (MLK2, cascade assay): 4.73% (inactive)
inhibition (MLK3, cascade assay): 1.88% (inactive)
inhibition (MSK1): 3.83% (inactive)
inhibition (MST2): -3.85% (inactive)
inhibition (MST4): -1.67% (inactive)
inhibition (NDR1): -0.193% (inactive)
inhibition (NEK1): 0.375% (inactive)
inhibition (NEK2): 0.761% (inactive)
inhibition (NEK6): 3.82% (inactive)
inhibition (NEK7): -4.5% (inactive)
inhibition (PAK3): 33.4% (inactive)
inhibition (PAK4): 17.6% (inactive)
inhibition (PAK5): 14.9% (inactive)
inhibition (PASK): 3.87% (inactive)
inhibition (PBK): 0.885% (inactive)
inhibition (PDGFRa(V561D)): 2.12% (inactive)
inhibition (PEK): -3.83% (inactive)
inhibition (PGK): 0.119% (inactive)
inhibition (PHKG1): 5.52% (inactive)
inhibition (PIK3CA/PIK3R1): -2.01% (inactive)
inhibition (PIM2): 0.406% (inactive)
inhibition (PIM3): 8.57% (inactive)
inhibition (PKACg): 1.21% (inactive)
inhibition (PKCa): 4.41% (inactive)
inhibition (PKCb2): 9.38% (inactive)
inhibition (PKCd): 8.65% (inactive)
inhibition (PKCg): 5.54% (inactive)
inhibition (PKD1): -0.973% (inactive)
inhibition (PKD2): 0.969% (inactive)
inhibition (PKD3): 5.41% (inactive)
inhibition (PKN1): 23.4% (inactive)
inhibition (PLK1): 0.912% (inactive)
inhibition (PRKX): -1.49% (inactive)
inhibition (RET(S891A)): 16.1% (inactive)
inhibition (RET(Y791F)): 2.31% (inactive)
inhibition (ROCK1): 6.72% (inactive)
inhibition (ROCK2): 2.67% (inactive)
inhibition (ROS): 82.7%
inhibition (RSK1): 8.92% (inactive)
inhibition (RSK2): 10.7% (inactive)
inhibition (RSK4): 10.3% (inactive)
inhibition (SGK3): 0.498% (inactive)
inhibition (SIK): 3.03% (inactive)
inhibition (SLK): 10.4% (inactive)
inhibition (SRC): 4% (inactive)
inhibition (SRM): -2.09% (inactive)
inhibition (SRPK1): 13.7% (inactive)
inhibition (SYK): -0.473% (inactive)
inhibition (TAK1-TAB1, cascade assay): 3.32% (inactive)
inhibition (TIE2): 4.15% (inactive)
inhibition (TNK1): 3.87% (inactive)
inhibition (TRKA): 54.8%
inhibition (TSSK3): 0% (inactive)
inhibition (TYK2): -1.6% (inactive)
inhibition (WNK2): -0.427% (inactive)
inhibition (p38a): 1.28% (inactive)
inhibition (p38d): 15.7% (inactive)
Structure (SMILES): COc1ccccc1[C@@H]1C2=C(CC(C)(C)CC2=O)Nc2n[nH]c(C(F)(F)F)c21
